pIC50: −log10 of the molar value.
Key:
[1] = molecular target: hGYS1 enzyme (recombinant hGYS1/GN1 protein) (Homo sapiens (Human), UniProt P13807); test: GYS1 coupled enzyme assay (PK/LDH); format: biochemical; settings: hGYS1/GN1 50 nM, UDP-Glucose 0.8 mM, G6P 1 mM; geometric mean of at least 2 runs
[2] = system: hGYS1 enzyme / glycogen synthesis in HeLa cells; test: GYS1 cell based assay (glycogen synthesis, Glucose-glo); set-up: species or system human; settings: Homo sapiens, HeLa, 24 h, 24 h incubation, 20 mM glucose, geometric mean of at least 2 runs
Method in brief: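 HeLa cells starved 24 h in medium containing only 1× Glutamax were plated onto compound in medium with 20 mM glucose (1% DMSO final) for 24 h, 37 °C, 5% CO2. Acid lysates were Tris-quenched, glucoamylase-digested (pH 5.3, 1 h, 37 °C) and read by Glucose-glo luminescence. IC50 came from Hill fits, as geometric mean of ≥2 runs.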

[3] = molecular target: hGYS2 enzyme (recombinant hGYS2/GN1 protein) (Homo sapiens (Human), UniProt P54840); test: GYS2 coupled enzyme assay (PK/LDH); format: biochemical; settings: geometric mean of at least 2 assay runs on separate days, read-out: Avg_IC50
Sequence of hGYS2 enzyme (recombinant hGYS2/GN1 protein) (P54840 whole entry): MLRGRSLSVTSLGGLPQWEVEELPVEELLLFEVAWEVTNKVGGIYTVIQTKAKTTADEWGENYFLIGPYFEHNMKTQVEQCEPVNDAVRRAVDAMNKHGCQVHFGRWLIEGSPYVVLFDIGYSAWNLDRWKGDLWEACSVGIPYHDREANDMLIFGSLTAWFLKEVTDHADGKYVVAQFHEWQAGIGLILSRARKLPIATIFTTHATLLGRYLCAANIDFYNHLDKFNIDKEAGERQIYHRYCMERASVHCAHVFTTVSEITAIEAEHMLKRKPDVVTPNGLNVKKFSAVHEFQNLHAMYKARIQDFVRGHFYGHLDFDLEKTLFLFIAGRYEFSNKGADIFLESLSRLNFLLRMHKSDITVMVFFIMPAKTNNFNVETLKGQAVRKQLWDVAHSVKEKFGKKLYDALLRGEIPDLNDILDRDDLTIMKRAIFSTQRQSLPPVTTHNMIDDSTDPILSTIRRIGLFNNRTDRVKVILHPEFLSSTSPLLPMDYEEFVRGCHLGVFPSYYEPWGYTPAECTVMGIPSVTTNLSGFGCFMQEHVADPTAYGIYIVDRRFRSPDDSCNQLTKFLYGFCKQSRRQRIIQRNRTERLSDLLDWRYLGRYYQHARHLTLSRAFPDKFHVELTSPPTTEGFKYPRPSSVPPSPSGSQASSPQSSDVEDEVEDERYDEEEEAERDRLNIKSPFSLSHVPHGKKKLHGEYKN
Sequence of hGYS2 enzyme (recombinant hGYS2/GN1 protein) (P46976 whole entry partner): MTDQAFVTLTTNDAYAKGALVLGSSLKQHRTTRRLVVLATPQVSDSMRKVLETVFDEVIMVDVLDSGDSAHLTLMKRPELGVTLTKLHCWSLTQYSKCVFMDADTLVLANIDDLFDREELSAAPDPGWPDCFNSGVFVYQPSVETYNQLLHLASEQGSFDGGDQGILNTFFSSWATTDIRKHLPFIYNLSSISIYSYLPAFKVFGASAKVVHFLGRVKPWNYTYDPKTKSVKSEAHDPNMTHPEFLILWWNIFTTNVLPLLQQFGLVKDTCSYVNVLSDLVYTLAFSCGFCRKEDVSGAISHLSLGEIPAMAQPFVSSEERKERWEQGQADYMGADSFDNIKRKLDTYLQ
Method in brief: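 hGYS2/GN1 200 nM; UDP-Glc 2 mM; glycogen 0.2%; G6P 2 mM; PEP 2 mM, NADH 0.6 mM, PK/LDH 20 U/mL. 50 mM Tris pH 7.5, MgCl2, KCl, BSA, TCEP, 2.5% DMSO. Kinetic A340, 10 min. IC50 = geomean of ≥2 runs.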

Sequence of hGYS1 enzyme (recombinant hGYS1/GN1 protein) (P13807 whole entry): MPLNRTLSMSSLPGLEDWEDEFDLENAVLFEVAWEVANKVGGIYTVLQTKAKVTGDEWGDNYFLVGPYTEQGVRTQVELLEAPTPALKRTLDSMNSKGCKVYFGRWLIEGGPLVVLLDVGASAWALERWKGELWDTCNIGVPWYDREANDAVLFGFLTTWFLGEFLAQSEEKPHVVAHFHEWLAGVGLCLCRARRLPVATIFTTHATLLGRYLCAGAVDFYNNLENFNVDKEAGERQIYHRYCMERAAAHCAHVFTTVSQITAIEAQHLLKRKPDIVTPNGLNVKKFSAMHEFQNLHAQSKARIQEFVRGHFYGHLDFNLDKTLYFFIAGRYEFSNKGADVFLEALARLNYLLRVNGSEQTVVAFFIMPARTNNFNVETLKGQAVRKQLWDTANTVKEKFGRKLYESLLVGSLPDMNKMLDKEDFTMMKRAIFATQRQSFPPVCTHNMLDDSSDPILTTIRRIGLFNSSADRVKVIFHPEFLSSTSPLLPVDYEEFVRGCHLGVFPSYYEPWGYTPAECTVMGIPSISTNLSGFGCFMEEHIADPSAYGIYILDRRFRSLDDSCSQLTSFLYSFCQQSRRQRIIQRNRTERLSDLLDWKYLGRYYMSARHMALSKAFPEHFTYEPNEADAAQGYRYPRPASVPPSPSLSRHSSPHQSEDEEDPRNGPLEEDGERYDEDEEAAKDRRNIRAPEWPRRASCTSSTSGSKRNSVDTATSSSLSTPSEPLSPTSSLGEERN
Sequence of hGYS1 enzyme (recombinant hGYS1/GN1 protein) (P46976 whole entry partner): as the sequence (P46976 whole entry partner) above

Row | Compound | pIC50 [1] | pIC50 [2] | pIC50 [3]
1 | CC1(c2ccc([C@@H](NC(=O)[C@@H]3C[C@@H](F)CN3C(=O)Cn3c(=O)[nH]c4ccccc43)c3ccccc3)cc2F)CC1 [Compound 570, (2S,4R)-4-fluoro-N-[(S)-[3-fluoro-4-(1-methylcyclopropyl)phenyl](phenyl)methyl]-1-[2-(2-oxo-2,3-dihydro-1H-1,3-benzodiazol-1-yl)acetyl]pyrrolidine-2-carboxamide] | 7.09 | 5.91 | < 4.00
2 | CC1(c2ccc([C@@H](NC(=O)[C@@H]3C[C@@H](F)CN3C(=O)Cc3n[nH]c4ccccc34)c3ccccc3)cc2F)CC1 [Compound 571, (2S,4R)-4-fluoro-N-[(S)-[3-fluoro-4-(1-methylcyclopropyl)phenyl](phenyl)methyl]-1-[2-(1H-indazol-3-yl)acetyl]pyrrolidine-2-carboxamide] | 7.12 | 6.03 | < 4.00
3 | CC1(c2ccc([C@@H](NC(=O)[C@@H]3C[C@@H](F)CN3C(=O)CN3CC(=O)NCC3=O)c3ccccc3)cc2F)CC1 [Compound 572, (2S,4R)-1-[2-(2,5-dioxopiperazin-1-yl)acetyl]-4-fluoro-N-[(S)-[3-fluoro-4-(1-methylcyclopropyl)phenyl](phenyl)methyl]pyrrolidine-2-carboxamide] | 6.69 | 5.44 | < 4.00
4 | CC1(c2ccc([C@@H](NC(=O)[C@@H]3C[C@@H](F)CN3C(=O)CN3Cc4ccccc4C3=O)c3ccccc3)cc2F)CC1 [Compound 573, (2S,4R)-4-fluoro-N-[(S)-[3-fluoro-4-(1-methylcyclopropyl)phenyl](phenyl)methyl]-1-[2-(1-oxo-2,3-dihydro-1H-isoindol-2-yl)acetyl]pyrrolidine-2-carboxamide] | 6.75 | 5.78 | < 4.00
5 | CC1(c2ccc([C@@H](NC(=O)[C@@H]3C[C@@H](F)CN3C(=O)Cn3nnc4ccccc43)c3ccccc3)cc2F)CC1 [Compound 575, (2S,4R)-1-[2-(1H-1,2,3-benzotriazol-1-yl)acetyl]-4-fluoro-N-[(S)-[3-fluoro-4-(1-methylcyclopropyl)phenyl](phenyl)methyl]pyrrolidine-2-carboxamide] | 6.92 | 5.68 | < 4.00
6 | CC1(c2ccc([C@@H](NC(=O)[C@@H]3C[C@@H](F)CN3C(=O)CN3C(=O)Cc4ccccc43)c3ccccc3)cc2F)CC1 [Compound 576, (2S,4R)-4-fluoro-N-[(S)-[3-fluoro-4-(1-methylcyclopropyl)phenyl](phenyl)methyl]-1-[2-(2-oxo-2,3-dihydro-1H-indol-1-yl)acetyl]pyrrolidine-2-carboxamide] | 7.07 | 5.74 | < 4.00
7 | CN1C(=O)C(CC(=O)N2C[C@H](F)C[C@H]2C(=O)N[C@@H](c2ccccc2)c2ccc(C3(C)CC3)c(F)c2)c2ccccc21 (stereo partly drawn) [Compound 577, (2S,4R)-4-fluoro-N-[(S)-[3-fluoro-4-(1-methylcyclopropyl)phenyl](phenyl)methyl]-1-[2-(1-methyl-2-oxo-2,3-dihydro-1H-indol-3-yl)acetyl]pyrrolidine-2-carboxamide] | 6.32 | 5.40 | 4.39
8 | CC1(c2ccc([C@@H](NC(=O)[C@@H]3C[C@@H](F)CN3C(=O)CN3CCN(C(=O)OCC(F)(F)F)CC3=O)c3ccccc3)cc2F)CC1 [Compound 578, 2,2,2-trifluoroethyl 4-{2-[(2S,4R)-4-fluoro-2-{[(S)-[3-fluoro-4-(1-methylcyclopropyl)phenyl](phenyl)methyl]carbamoyl}pyrrolidin-1-yl]-2-oxoethyl}-3-oxopiperazine-1-carboxylate] | 6.21 | 5.18 | 4.10
9 | COCCN1CCN(C(=O)OCC(=O)N2C[C@H](F)C[C@H]2C(=O)N[C@@H](c2ccccc2)c2ccc(C3(C)CC3)c(F)c2)CC1 [Compound 579, 2-[(2S,4R)-4-fluoro-2-{[(S)-[3-fluoro-4-(1-methylcyclopropyl)phenyl](phenyl)methyl]carbamoyl}pyrrolidin-1-yl]-2-oxoethyl 4-(2-methoxyethyl) piperazine-1-carboxylate] | 7.23 | 5.74 | < 4.00
10 | CC1(c2ccc([C@@H](NC(=O)[C@@H]3C[C@@H](F)CN3C(=O)CN3CCN(CC(F)(F)F)CC3=O)c3ccccc3)cc2F)CC1 [Compound 580, (2S,4R)-4-fluoro-N-[(S)-[3-fluoro-4-(1-methylcyclopropyl)phenyl](phenyl)methyl]-1-{2-[2-oxo-4-(2,2,2-trifluoroethyl)piperazin-1-yl]acetyl}pyrrolidine-2-carboxamide] | 6.60 | 5.37 | < 4.00
11 | CC1(c2ccc([C@@H](NC(=O)[C@@H]3C[C@@H](F)CN3C(=O)CC3C(=O)Nc4ccccc43)c3ccccc3)cc2F)CC1 (stereo partly drawn) [Compound 581, (2S,4R)-4-fluoro-N-[(S)-[3-fluoro-4-(1-methylcyclopropyl)phenyl](phenyl)methyl]-1-[2-(2-oxo-2,3-dihydro-1H-indol-3-yl)acetyl]pyrrolidine-2-carboxamide] | 6.57 | 5.41 | < 4.00
12 | CC1(c2ccc([C@@H](NC(=O)[C@@H]3C[C@@H](F)CN3C(=O)Cn3cnnc3)c3ccccc3)cc2F)CC1 [Compound 582, (2S,4R)-4-fluoro-N-[(S)-[3-fluoro-4-(1-methylcyclopropyl)phenyl](phenyl)methyl]-1-[2-(4H-1,2,4-triazol-4-yl)acetyl]pyrrolidine-2-carboxamide] | 6.50 | 5.09 | < 4.00
13 | CN1CCN(C(=O)OCC(=O)N2C[C@H](F)C[C@H]2C(=O)N[C@@H](c2ccccc2)c2ccc(C3(C)CC3)c(F)c2)CC1 [Compound 583, 2-[(2S,4R)-4-fluoro-2-{[(S)-[3-fluoro-4-(1-methylcyclopropyl)phenyl](phenyl)methyl]carbamoyl}pyrrolidin-1-yl]-2-oxoethyl 4-methylpiperazine-1-carboxylate] | 6.98 | 5.79 | < 4.00
14 | CC1(c2ccc([C@@H](NC(=O)[C@@H]3C[C@@H](F)CN3C(=O)COC(=O)N3CCN(CC4CC4)CC3)c3ccccc3)cc2F)CC1 [Compound 584, 2-[(2S,4R)-4-fluoro-2-{[(S)-[3-fluoro-4-(1-methylcyclopropyl)phenyl](phenyl)methyl]carbamoyl}pyrrolidin-1-yl]-2-oxoethyl 4-(cyclopropylmethyl) piperazine-1-carboxylate] | 6.98 | 5.39 | < 4.04
15 | CC1(c2ccc([C@@H](NC(=O)[C@@H]3C[C@@H](F)CN3C(=O)COC(=O)N3CCN(CC(F)(F)F)CC3)c3ccccc3)cc2F)CC1 [Compound 585, 2-[(2S,4R)-4-fluoro-2-{[(S)-[3-fluoro-4-(1-methylcyclopropyl)phenyl](phenyl)methyl]carbamoyl}pyrrolidin-1-yl]-2-oxoethyl 4-(2,2,2-trifluoroethyl) piperazine-1-carboxylate] | 6.69 | 5.49 | < 4.00
16 | CC1(c2ccc([C@@H](NC(=O)[C@@H]3C[C@@H](F)CN3C(=O)Cc3n[nH]c4ccccc34)c3ccccc3)nc2F)CC1 [Compound 588, (2S,4R)-4-fluoro-N-[(S)-[6-fluoro-5-(1-methylcyclopropyl)pyridin-2-yl] (phenyl)methyl]-1-[2-(1H-indazol-3-yl)acetyl]pyrrolidine-2-carboxamide] | 7.44 | 6.32 | < 4.00
17 | CC1(c2ccc([C@@H](NC(=O)[C@@H]3C[C@@H](F)CN3C(=O)CNC(=O)N3CCOCC3)c3ccccc3)nc2F)CC1 [Compound 589, N-{2-[(2S,4R)-4-fluoro-2-{[(S)-[6-fluoro-5-(1-methylcyclopropyl)pyridin-2-yl](phenyl)methyl]carbamoyl}pyrrolidin-1-yl]-2-oxoethyl} morpholine-4-carboxamide] | 7.00 | 5.85 | < 4.00
18 | CC1(c2ccc([C@H](NC(=O)[C@@H]3C[C@@H](F)CN3C(=O)Cc3n[nH]c4ccccc34)c3ccccc3)nc2F)CC1 [Compound 590, (2S,4R)-4-fluoro-N-[(R)-[6-fluoro-5-(1-methylcyclopropyl)pyridin-2-yl](phenyl)methyl]-1-[2-(1H-indazol-3-yl)acetyl]pyrrolidine-2-carboxamide] | 5.59 | 4.63 | < 4.00
19 | Cn1c(CC(=O)N2C[C@H](F)C[C@H]2C(=O)N[C@@H](c2ccccc2)c2ccc(C3(C)CC3)c(F)n2)cc2ccccc21 [Compound 591, (2S,4R)-4-fluoro-N-[(S)-[6-fluoro-5-(1-methylcyclopropyl)pyridin-2-yl](phenyl)methyl]-1-[2-(1-methyl-1H-indol-2-yl)acetyl]pyrrolidine-2-carboxamide] | 7.49 | 6.51 | < 4.00
20 | Cn1cc(CC(=O)N2C[C@H](F)C[C@H]2C(=O)N[C@@H](c2ccccc2)c2ccc(C3(C)CC3)c(F)n2)c2ccccc21 [Compound 592, (2S,4R)-4-fluoro-N-[(S)-[6-fluoro-5-(1-methylcyclopropyl)pyridin-2-yl](phenyl)methyl]-1-[2-(1-methyl-1H-indol-3-yl)acetyl]pyrrolidine-2-carboxamide] | 8.00 | 6.48 | < 4.00

From US11814367B2, “Inhibitors of glycogen synthase 1 (GYS1) and methods of use thereof” (Maze Therapeutics, Inc., priority 2021, dated 2023)
